Experimental data as given in PubChem BioAssay AID1552 (Sanford-Burnham Center for Chemical Genomics, 2009).
Active and inactive are the calls of the source. No rule for the calls is given here.

The compounds below were run against Ubiquitin-conjugating enzyme E2 N (Homo sapiens) (UniProt P61088) (assay: NMR detection of UBE2N ligand binding – biophysical, purified protein (AID 1552)). Conditions: NMR binding to purified UBE2N.
Chain of Ubiquitin-conjugating enzyme E2 N (Homo sapiens) (P61088 whole entry, looked up): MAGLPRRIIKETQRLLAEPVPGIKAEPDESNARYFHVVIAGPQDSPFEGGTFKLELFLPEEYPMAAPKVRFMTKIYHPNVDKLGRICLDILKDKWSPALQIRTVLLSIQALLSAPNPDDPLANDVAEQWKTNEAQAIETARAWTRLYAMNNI

SMILES	Kd
COc1cc2occc2c2oc(=O)ccc12	> 4 mM (inactive)
CC1(C)CCC(C)(C)c2cc(C(=O)O)ccc21	> 4 mM (inactive)
NC(=O)CS(=O)(=O)c1ccc(Cl)cc1	> 4 mM (inactive)
CN(C)C(=O)Nc1ccc(F)cc1F	> 4 mM (inactive)
COc1cc2c(cc1OC)C(C)NCC2 (stereo not drawn)	> 4 mM (inactive)
COc1ccc(CN2CCNC(=O)C2CC(=O)O)cc1C (stereo not drawn)	> 4 mM (inactive)
O=c1ccn(Cc2ccccc2)c(=O)[nH]1	> 4 mM (inactive)
CC1(C)CC[C@]2(C(=O)O)CC[C@]3(C)C(=CCC4[C@@]5(C)CC[C@H](O)[C@@](C)(CO)C5CC[C@]43C)C2C1 (stereo partly drawn)	> 4 mM (inactive)
C=CCNC(=O)c1ccc(Cl)cc1Cl	> 4 mM (inactive)
C=C1C(=O)O[C@@H]2C3OC3(C)CC/C=C(\C)CC[C@@H]12 (stereo partly drawn)	> 4 mM (inactive)
O=C(CO)N/N=C/c1ccccc1F	> 4 mM (inactive)
C[C@]12CCC(=O)C=C1CCC1C2C(=O)C[C@@]2(C)C1CC[C@]2(O)C(=O)CO (stereo partly drawn)	> 4 mM (inactive)
COC(=O)C[C@@H]1C2(C)C(=O)[C@@H](CC3=C4CC(=O)O[C@@H](c5ccoc5)[C@]4(C)CCC32)[C@H](OC(C)=O)C1(C)C (stereo partly drawn)	> 4 mM (inactive)
C#CCCCCCCCCCCCC(=O)CC(O)COC(C)=O (stereo not drawn)	> 4 mM (inactive)
COc1cccc(O)c1O	> 4 mM (inactive)
Cc1n[nH]c(C)c1CC(=O)O	> 4 mM (inactive)
CCC(=O)Nc1ccccc1NC(C)=O	> 4 mM (inactive)
Cc1occc1C(=O)NC1CCN(C)CC1	> 4 mM (inactive)
CN1C(=O)/C(=C\c2ccc[nH]2)SC1=S	> 4 mM (inactive)
O=c1cc(-c2ccc(O)cc2)oc2cc(O[C@@H]3O[C@H](CO)[C@@H](O)[C@H](O)[C@H]3O[C@@H]3OC[C@](O)(CO)[C@H]3O)cc(O)c12	> 4 mM (inactive)
O=C(Nc1cccnc1)N1CCOCC1	> 4 mM (inactive)
Cc1ncc(C(=O)O)c(-c2ccccc2)n1	> 4 mM (inactive)
CC(=O)NC(O)C(=O)c1ccccc1 (stereo not drawn)	> 4 mM (inactive)
COC1C=CC23c4cc5c(cc4CN(CC2O)[C@@H]3C1)OCO5 (stereo partly drawn)	> 4 mM (inactive)

SMILES	Kd
CCC(C)C(NC)C(=O)O (stereo not drawn)	> 4 mM (inactive)
O=C(c1cnsn1)N1CCN(c2ccccn2)CC1	> 4 mM (inactive)
CCOC(=O)Cn1cnc2c1c(=O)[nH]c(=O)n2C	> 4 mM (inactive)
O=C(O)C1C(=O)NCC1c1ccccc1 (stereo not drawn)	> 4 mM (inactive)
Cc1nn(CC(=O)N2CCCCC2)c(=O)c2ccccc12	> 4 mM (inactive)
Nc1ccccc1OC(F)(F)F	> 4 mM (inactive)
C=CCNC(=O)c1nn2cccnc2c1Cl	> 4 mM (inactive)
O=[N+]([O-])c1cccc(CN2CCC(O)CC2)c1	> 4 mM (inactive)
CC(=O)O[C@H]1C[C@@H](OC(C)=O)C(C)(C)C2C[C@@H](OC(C)=O)[C@]3(C)C(CC[C@@]4(C)[C@H](c5ccoc5)C(=O)[C@H]5O[C@]543)[C@]21C (stereo partly drawn)	> 4 mM (inactive)
O=C(O)C1NCCc2ccccc21 (stereo not drawn)	> 4 mM (inactive)
OCc1ccc(-c2ccccn2)s1	> 4 mM (inactive)
O=C(O)Cc1c[nH]c2ccccc12	> 4 mM (inactive)
CC(=O)O[C@@H]1C[C@@]2(C)[C@H](c3ccoc3)C[C@H]3O[C@]32[C@]2(C)C(=O)C(O)=C3C(C)(C)C(=O)C=C[C@]3(C)C12 (stereo partly drawn)	> 4 mM (inactive)
CCCCCc1c2c(cc(O)c1C(=O)O)OC(=O)c1c(cc(OC)cc1C(=O)CCCC)O2	> 4 mM (inactive)
Cc1nccc2c1[nH]c1ccccc12	> 4 mM (inactive)
Oc1ccc(C2SCCS2)cc1	> 4 mM (inactive)
O=c1cnnc(NCc2ccc(F)cc2)[nH]1	> 4 mM (inactive)
CCCc1ncc(C(O)c2cccc3ccccc23)n1C (stereo not drawn)	> 4 mM (inactive)
CCN=Cc1c(O)n(-c2ccccc2C)c(=O)[nH]c1=O	> 4 mM (inactive)
Cc1csc(SCC(=O)N2CCCC2)n1	> 4 mM (inactive)
CC(=O)N/N=C(\C)c1cccc(N)c1	> 4 mM (inactive)
CC(=O)OC1CC[C@@]2(C)C(CCC3C2CC[C@]2(C)C(C4=CC(=O)OC4)C(OC(C)=O)CC32O)C1 (stereo partly drawn)	> 4 mM (inactive)
Cc1nc(N)sc1C(=O)N/N=C/c1ccncc1	> 4 mM (inactive)
CNC(=O)Nc1cccc(C(F)(F)F)c1	> 4 mM (inactive)

SMILES	Kd
O=C(Nc1cccnc1)Nc1ccc2c(c1)OCO2	> 4 mM (inactive)
Cc1cn2c(-c3cccnc3)nnc2s1	> 4 mM (inactive)
Nc1ccc(C(=O)NCC2CCCO2)cc1 (stereo not drawn)	> 4 mM (inactive)
CCC(CO)NC(=O)c1snnc1C (stereo not drawn)	> 4 mM (inactive)
CN1CCC(NC(=O)c2c(F)cccc2Cl)CC1	> 4 mM (inactive)
COc1c(C)c2c(c(O)c1C/C=C(\C)CCC(=O)O)C(=O)OC2	> 4 mM (inactive)
O=C(Nc1ccon1)c1sc2cc(F)ccc2c1Cl	> 4 mM (inactive)
C=C(C)[C@H]1CC=C(C(=O)O)CC1	> 4 mM (inactive)
Nc1nnc(SCc2ccc3c(c2)OCO3)s1	> 4 mM (inactive)
Cc1nnc(SCC(=O)Nc2ccccc2)[nH]c1=O	> 4 mM (inactive)
C=CC(C)(O)CC/C=C(\C)CCC=C(C)C (stereo not drawn)	> 4 mM (inactive)
CN1CCCn2c1nc1c2c(=O)[nH]c(=O)n1C	> 4 mM (inactive)
c1ccc(CN2CCC3(CC2)Nc2ccccc2CO3)cc1	> 4 mM (inactive)
NC(=O)/C=C/C(=O)Nc1ccccc1	> 4 mM (inactive)
Cc1nnc(NCCO)[nH]c1=O	> 4 mM (inactive)
NC(=O)CC1Sc2ccccc2NC1=O (stereo not drawn)	> 4 mM (inactive)
CC(=O)C1=C(O)C(=O)NC1c1ccccc1 (stereo not drawn)	> 4 mM (inactive)
NC(=O)CC1Nc2cccc3cccc(c23)NC1=O (stereo not drawn)	> 4 mM (inactive)
O=c1c(O)c(-c2ccc(O)c(O)c2)oc2cc(O)ccc12	> 4 mM (inactive)
O=C(O)C1CC(=O)N(Cc2ccc(F)cc2)C1 (stereo not drawn)	> 4 mM (inactive)
CC(C)=CC(=O)Nc1ccc(S(N)(=O)=O)cc1	> 4 mM (inactive)
NC(=O)CN=Cc1c(O)[nH]c2ccccc12	> 4 mM (inactive)
Cc1c(/C=N/O)cnn1C	> 4 mM (inactive)
C=C1CCC2[C@](C)(CO)[C@H](O)CC[C@@]2(C)[C@@H]1C/C=C1/C(=O)OC[C@H]1O (stereo partly drawn)	> 4 mM (inactive)

SMILES	Kd
Cc1nn(C)c(C)c1NC(=S)NC1CCCC1	> 4 mM (inactive)
c1cncc(C(N2CCOCC2)N2CCOCC2)c1	> 4 mM (inactive)
Cc1ncoc1C(=O)Nc1ccccc1C(N)=O	> 4 mM (inactive)
O=S(=O)(c1cccc2cccnc12)N1CCOCC1	> 4 mM (inactive)
Cn1c(CO)nc2cc(N)ccc21	> 4 mM (inactive)
COc1cccc(-c2nc3ccc(O)cc3c(=O)o2)c1	> 4 mM (inactive)
COc1ccc2cc1Oc1ccc(cc1)C[C@H]1c3cc(c(OC)cc3CCN1C)Oc1c(OC)c(OC)cc3c1[C@H](C2)N(C)CC3	> 4 mM (inactive)
COc1cccc(-c2nn(-c3ccccc3)cc2CO)c1	> 4 mM (inactive)
O=C(Nc1ccon1)c1csc2c1CCCC2	> 4 mM (inactive)
NC(=O)Cn1nc2c3c(cccc3c1=O)-c1ccccc1-2	> 4 mM (inactive)
CC1(O)CC2C=CC1C2 (stereo not drawn)	> 4 mM (inactive)
O=C(/C=C/c1ccc(O)c(O)c1)O[C@@H]1C[C@](O)(C(=O)O)C[C@@H](O)[C@H]1O	> 4 mM (inactive)
c1ccc(CNc2ncnc3nc[nH]c23)nc1	> 4 mM (inactive)
COC(=O)c1ccc(N2CCCC2)nc1	> 4 mM (inactive)
Nc1ccc2sccc2c1	> 4 mM (inactive)
COc1ccc2nc(N)sc2c1	> 4 mM (inactive)
O=C(Nc1ccon1)c1ccccc1Cl	> 4 mM (inactive)
CC(C)(C)C(=O)Nc1nnc(SCC(N)=O)s1	> 4 mM (inactive)
Nc1cc(N)nc(SCc2ccccc2)n1	> 4 mM (inactive)
CC(=O)c1cc(CN2C(=O)c3ccccc3C2=O)cs1	> 4 mM (inactive)
CCOC(=O)N1CCCC1c1cccnc1 (stereo not drawn)	> 4 mM (inactive)
CC(=O)Nc1cccc(N2CCCC2=O)c1	> 4 mM (inactive)
CC(=O)NC(=S)Nc1ccccc1N1CCOCC1	> 4 mM (inactive)
NC(=O)c1cccc(Cl)n1	> 4 mM (inactive)

SMILES	Kd
CC1=NN(c2ccc(N)cc2)C(=O)C1	> 4 mM (inactive)
O=C(O)c1ccc(-c2ccccn2)s1	> 4 mM (inactive)
O=c1[nH]cc(COCc2ccccc2)c(=O)[nH]1	> 4 mM (inactive)
CC(=O)Nc1ccc(Cl)c(C(N)=O)c1	> 4 mM (inactive)
CCOC(=O)CSc1nnc(C)c(=O)[nH]1	> 4 mM (inactive)
O=C1NC(=S)N/C1=C\c1ccccc1F	> 4 mM (inactive)
CCOC(=O)CC1NCCNC1=O (stereo not drawn)	> 4 mM (inactive)
O=c1cc(-c2ccccc2)oc2c(O)c(O)ccc12	> 4 mM (inactive)
CC(=O)Oc1cccc2ccc(=O)[nH]c12	> 4 mM (inactive)
O=C(Nc1ccc(F)cc1F)c1ccco1	> 4 mM (inactive)
CN1C(=O)CC[C@H]1c1cccnc1	> 4 mM (inactive)
COc1cccc(-c2nc(-c3ccccn3)no2)c1OC	> 4 mM (inactive)
O=C(/C=C/c1ccccc1)c1ccc(O)cc1	> 4 mM (inactive)
NC(=O)CSc1ccc2nnc(-c3cccs3)n2n1	> 4 mM (inactive)
CS(=O)(=O)N1CCC(C(=O)NC2CCCC2)CC1	> 4 mM (inactive)
CC(=O)c1cc(C)ccc1OC(=O)c1cccnc1	> 4 mM (inactive)
c1ccc(Cc2nnc(-c3ccccc3)o2)cc1	> 4 mM (inactive)
O=[n+]1cc(-c2ccccc2)n([O-])c2c1CCC2	> 4 mM (inactive)
CCn1c(=O)cc(N2CCC3(CC2)OCCO3)[nH]c1=O	> 4 mM (inactive)
O=C1c2ccccc2C(=O)N1CCc1ccccn1	> 4 mM (inactive)
O=C1CCC(=O)N1c1cccnc1	> 4 mM (inactive)
CC(C)CCCC(C)[C@H]1CCC2C3CC[C@H]4CC(=O)CC[C@]4(C)C3CC[C@@]21C (stereo partly drawn)	> 4 mM (inactive)
